Source: patent US20100261766A1, “Phenyl-Oxetanyl-Derivatives” (priority 2007, published 2010)

Columns and labels:
S1P5 receptor = S1P5 receptor (Homo sapiens, UniProt Q9H228); assay: S1P5 GTP[γ-35S] binding assay, membranes of CHO cells; assay type: biochemical; conditions: agonistic activity in vitro; read-out: S1P-5 GTPyS/EC50
Method: (§1) A. In Vitro: GPCR Activation Assay Measuring GTP [γ-^35S] Binding to Membranes Prepared from CHO Cells Expressing Human EDG Receptors
(§2) Serial dilutions of compounds (stock in 10 mM DMSO) are prepared by first diluting the compounds in DMSO (1:10) followed by a 1:20 dilution into assay buffer (50 mM HEPES, pH 7.4, 5 mM MgCl2, 1 mM CaCl2, 1% fatty acid-free BSA). S1P (1 mM in DMSO/HCl) is diluted directly into assay buffer. The desired amount of membranes (1-5 μg/well) is diluted with assay buffer containing 10 μM GDP, 25 μg/mL Saponin and 5 mg/mL WGA-SPA beads. 9 μL of pre-diluted compound is placed into the bottom of a 96-well deep-well plate. 440 μL of the membrane-WGA-SPA bead slurry is added and the plate stirred for 15 minutes. Then twice 210 μL are transferred each into a 96-well Optiplate containing 15 μL GTP [γ-^35S] (4 nM in assay buffer). After incubation at room temperature for 120 minutes under constant shaking the plates are centrifuged for 10 minutes at 1000 g to pellet the membrane-SPA beads slurry. Then the plates are measured in a TOPcount NXT. Eight different concentrations of compound are used to generate a concentration response curve (using two data points per concentration) and the corresponding EC50 value using the curve-fitting tool of GraphPad Prism.
For each membrane preparation, titration experiments are first run with S1P control to determine the optimal amount of membranes to be added per assay well.

[1] = biological target: T1, human S1P1 (EDG-1) receptor (Homo sapiens, UniProt P21453); assay: S1P1 (EDG-1) GTP[γ-35S] binding assay, membranes of CHO cells; assay type: biochemical; conditions: agonistic activity in vitro; read-out: S1P-1 GTPyS/EC50
T1 construct: c-myc (N); expressed in transfected cells
Method: as §1
S1P1 (EDG-1) GTP [γ-^35S] assay: Homogenized membranes are prepared from CHO cell clones stably expressing a human EDG-1 N-terminal c-myc tag. Cells are grown in large culture dishes (500 cm^2) to a confluence between 80 and 90%. The culture medium is removed and 20 mL ice-cold buffer A (10 mM HEPES, pH 7.4, 10 mM EDTA, complete protease inhibitor cocktail [1 tablet/50 mL]) added. The cells are harvested by scraping and the cell suspension centrifuged at 750×g for 10 min at 4° C. The pellet is resuspended in 10 mL ice-cold buffer B (20 mM HEPES, pH 7.4, 100 mM NaCl, 10 mM MgCl2, 1 mM EDTA). The cell suspension is homogenized on ice, using a Polytron homogenizer at 25000 rpm at three intervals of 20 seconds each. Then the homogenate is centrifuged at 26900×g for 30 min at 4° C. and the membrane protein pellet resuspended by vortexing in cold buffer B. The protein concentration is determined using the Bio Rad Protein Assay and human IgG as standard. The volume of the membrane protein suspension is adjusted to a final concentration of about 2 mg protein/mL. The solution is then once again homogenized (Polytron) on ice at 25000 rpm for 20 seconds before being aliquoted and stored at −80° C.
as §2

[2] = tested on: experimental autoimmune encephalomyelitis (EAE); assay: Chronic-progressive EAE model (therapeutic treatment); assay type: in vivo, DA rat; conditions: therapeutic treatment after peak of disease; from day 15 post-immunization (after 4 days of treatment) until end of experiment; scale 0-5
[3] = tested on: experimental autoimmune encephalomyelitis (EAE); assay: Acute EAE model; assay type: in vivo, Lewis rats; conditions: 10 mg/kg b.i.d., oral gavage, days 0-13
[4] = tested on: experimental autoimmune uveitis (EAU); assay: S-antigen-induced experimental autoimmune uveitis (EAU); assay type: in vivo, Lewis rats; conditions: 3 and 10 mg/kg bid p.o., day 7 to day 18 post-immunization
circulating lymphocytes = assay: Blood lymphocyte depletion in rats; assay type: in vivo, Lewis rats; conditions: for recovery of lymphocyte counts back to baseline: within 48 hours
Method: Measurement of circulating lymphocytes: Lewis rats (male, 6-12 weeks old) are orally administered with 0.1 to 5 mg/kg of compound (4 ml/kg vehicle, e.g. in max. 2% DMSO/max. 2% PEG200/water or 0.5% methyl cellulose). A vehicle group is included as negative control.
Blood is collected from the sublingual vein at baseline (0 h) and 2, 6, 24 and 48 hours after administration under short isoflurane anesthesia. Whole blood samples are subjected to hematology analysis. Peripheral lymphocyte counts are determined using an automated analyzer. Two to four rats are used to assess the lymphocyte counts of each dose.

S1P5 receptor, sequence (Q9H228 whole entry): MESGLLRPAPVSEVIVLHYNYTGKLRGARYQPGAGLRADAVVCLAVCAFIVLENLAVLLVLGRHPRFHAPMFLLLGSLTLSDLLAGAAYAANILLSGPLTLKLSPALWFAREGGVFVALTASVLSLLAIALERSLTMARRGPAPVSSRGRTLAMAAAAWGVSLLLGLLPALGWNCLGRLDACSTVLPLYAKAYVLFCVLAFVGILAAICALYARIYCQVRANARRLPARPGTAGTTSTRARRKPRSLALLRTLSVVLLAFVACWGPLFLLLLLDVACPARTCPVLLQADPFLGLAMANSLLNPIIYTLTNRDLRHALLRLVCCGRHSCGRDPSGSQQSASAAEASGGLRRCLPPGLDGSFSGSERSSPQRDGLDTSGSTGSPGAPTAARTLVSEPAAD
T1 sequence (P21453 whole entry): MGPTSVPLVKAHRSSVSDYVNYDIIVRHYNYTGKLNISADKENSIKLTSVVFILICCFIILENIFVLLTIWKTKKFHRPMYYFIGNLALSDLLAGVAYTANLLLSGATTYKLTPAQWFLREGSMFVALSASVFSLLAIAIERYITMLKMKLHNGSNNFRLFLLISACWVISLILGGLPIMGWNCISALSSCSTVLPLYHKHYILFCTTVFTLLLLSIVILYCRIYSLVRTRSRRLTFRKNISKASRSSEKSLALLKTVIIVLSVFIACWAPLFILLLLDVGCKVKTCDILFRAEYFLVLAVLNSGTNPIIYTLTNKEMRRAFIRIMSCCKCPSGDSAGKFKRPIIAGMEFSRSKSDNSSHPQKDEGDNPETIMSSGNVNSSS

EC50 (S1P5 receptor) [nM]	EC50 [1] [nM]	SMILES	clinical scores in chronic-progressive EAE [2]	effect on disease symptoms in acute EAE [3]	protection from autoimmune uveitis [4]	recovery of lymphocyte counts back to baseline (circulating lymphocytes; 1 mg/kg p.o.)	recovery of lymphocyte counts back to baseline (circulating lymphocytes; 5 mg/kg p.o.)	peripheral lymphocyte counts (circulating lymphocytes; 0.1 to 5 mg/kg p.o., Lewis rats)	time of maximal reduction of peripheral lymphocyte counts post-administration (circulating lymphocytes; 1 or 5 mg/kg p.o., Lewis rats) [h]
300	17	CCOc1ccc(-c2nc(-c3ccc(C4(N)COC4)cc3)no2)cc1C#N [Example 4]	–	–	–	–	–	–	–
280	29	CCOc1ccc(-c2nc(-c3ccc(C4(O)COC4)cc3)no2)cc1C#N [Example 6, 5-{3-[4-(3-Hydroxy-oxetan-3-yl)-phenyl]-[1,2,4]oxadiazol-5-yl}-2-ethoxy-benzonitrile]	–	–	–	–	–	–	–

More lines, now with the values behind:

SMILES	EC50 (S1P5 receptor) [nM]	EC50 [1] [nM]	clinical scores in chronic-progressive EAE [2]	effect on disease symptoms in acute EAE [3]	protection from autoimmune uveitis [4]	recovery of lymphocyte counts back to baseline (circulating lymphocytes; 1 mg/kg p.o.)	recovery of lymphocyte counts back to baseline (circulating lymphocytes; 5 mg/kg p.o.)	peripheral lymphocyte counts (circulating lymphocytes; 0.1 to 5 mg/kg p.o., Lewis rats)	time of maximal reduction of peripheral lymphocyte counts post-administration (circulating lymphocytes; 1 or 5 mg/kg p.o., Lewis rats) [h]
CC(C)Oc1ccc(-c2nc(-c3ccc(C4(N)COC4)cc3)no2)cc1C#N [Example 1, 5-{3-[4-(3-Amino-oxetan-3-yl)-phenyl]-[1,2,4]oxadiazol-5-yl}-2-iso-propoxy-benzonitrile]	90	10	< 0.5	prevention of disease symptoms	dose-dependent protection from autoimmune uveitis	fully	partially recover back to baseline	dose-dependent reduction	6
CC(=O)c1cc(-c2nc(-c3ccc(C4(O)COC4)cc3)no2)ccc1OC(C)C [Example 5]	310	25	–	–	–	–	–	–	–
CC(=O)c1cc(-c2nc(-c3ccc(C4(N)COC4)cc3)no2)ccc1OC(C)C [Example 3]	180	13	–	–	–	–	–	–	–
CC(C)Oc1ccc(-c2nc(-c3ccc(C4(O)COC4)cc3)no2)cc1C#N [Example 2]	30	6	–	–	–	–	–	–	–
